Data as given in US4536335A, “Carbapenem antibiotics” (Bristol-Myers Company, priority 1983, dated 1985).
Converted amounts (≈) assume the structure as drawn. Where two headings read alike, the source gives them in different places.

Tests used:
[1] = tested on: various Pseudomonas species; settings: prior art description; cited from earlier work
[2] = tested on: E. cloacae A-9656; test: In vitro MIC, tube dilution; type: cell-based; settings: Enterobacter cloacae, A9656; tube dilution, Nutrient Broth, overnight incubation at 37° C.
[3] = tested on: P. aeruginosa A-9843A; test: In vitro MIC, tube dilution; type: cell-based; settings: Pseudomonas aeruginosa, A9843A, Nutrient Broth, overnight incubation at 37° C.
[4] = tested on: P. rettgeri A22424; test: In vitro MIC, tube dilution; type: cell-based; settings: Providencia rettgeri, A22424, tube dilution, Nutrient Broth, overnight incubation at 37° C.
[5] = Toxicity after intracranial administration to mice; settings: mouse, in vivo
Text: | *Average of 25/mice/compound

[6] = tested on: E. coli A20341-1; test: In vitro MIC, tube dilution; type: cell-based; settings: Escherichia coli, A203411, tube dilution, Nutrient Broth, overnight incubation at 37° C.
[7] = tested on: S. aureus A-9537; test: In vitro MIC, tube dilution; type: cell-based; settings: Staphylococcus aureus, overnight incubation at 37° C.
[8] = tested on: P. aeruginosa A-9843a; test: Protective effect in the intramuscular treatment of infected mice (PD50); type: in vivo; settings: Pseudomonas aeruginosa, A9843A, im; mice, challenge 3 × 10^6 organisms, treated i.m. 0 and 2 hours post-infection; read-out: PD50/Treatment, P. aeruginosa A-9843a
Protocol: The PD50 (dose in mg/kg required to give protection to 50% of the infected mice) is indicated.
(§1) Treatment Schedule: Mice were treated i.m. with drugs 0 and 2 hours post-infection; 5 mice per dose were used for each test
*For compound of Ex. 2, mice were infected i.p. with 2 × 10^9
compounds of Ex. 4 and 5, mice were infected i.p. with ~9 ×
were treated i.m. with drugs 0 and 2 h postinfection.

[9] = tested on: K. pneumoniae A20468; test: In vitro MIC, tube dilution; type: cell-based; settings: Klebsiella pneumoniae, A20468, tube dilution, Nutrient Broth, overnight incubation at 37° C.
[10] = tested on: P. morganii A15153; test: In vitro MIC, tube dilution; type: cell-based; settings: Morganella morganii, A15153, tube dilution, Nutrient Broth, overnight incubation at 37° C.; read-out: MIC P. morganii A15153
[11] = tested on: K. pneumoniae A-9664; test: In vitro MIC, tube dilution; type: cell-based; settings: Klebsiella pneumoniae, A9664, tube dilution, Nutrient Broth, overnight incubation at 37° C.
[12] = Blood levels in mice after intramuscular administration; type: in vivo; settings: mouse, blood, im, mice, i.m. 20 mg/kg
Text: Compounds were solubilized in 0.1 M phosphate buffer pH 7. Values are fro
a single test; 4 mice used per compound.
*t1/2 refers to halflife in minutes
**AUC refers to the area under the blood concentrationtime curve
(§2) Also shown is the urinary recovery in the mice.
Compounds were solubilized in 0.1 M phosphate buffer, pH 7.
Values based on a single test; 4 mice per compound.
*T1/2 refers to halflife in minutes

[13] = tested on: B. fragilis A22696; test: In vitro MIC, tube dilution; type: cell-based; settings: Bacteroides fragilis, Nutrient Broth, overnight incubation at 37° C.
Text: (§3) N-Formimidoyl thienamycin was included as a comparison compound.

[14] = tested on: B. fragilis A22862; test: In vitro MIC, tube dilution; type: cell-based; settings: Bacteroides fragilis, Nutrient Broth, overnight incubation at 37° C.
Text: as §3

[15] = tested on: B. fragilis A22053; test: In vitro MIC, tube dilution; type: cell-based; settings: Bacteroides fragilis, Nutrient Broth, overnight incubation at 37° C.
Text: as §3

[16] = tested on: E. cloacae A-9569; test: In vitro MIC, tube dilution; type: cell-based; settings: Enterobacter cloacae, A9569, Nutrient Broth, overnight incubation at 37° C.
Text: as §3

[17] = tested on: B. fragilis A22863; test: In vitro MIC, tube dilution; type: cell-based; settings: Bacteroides fragilis, Nutrient Broth, overnight incubation at 37° C.
Text: as §3

[18] = tested on: P. mirabilis A-9900; test: In vitro MIC, tube dilution; type: cell-based; settings: Proteus mirabilis, A9900, tube dilution, Nutrient Broth, overnight incubation at 37° C.
[19] = tested on: P. aeruginosa A21213; test: In vitro MIC, tube dilution; type: cell-based; settings: Pseudomonas aeruginosa, A21213, tube dilution, Nutrient Broth, overnight incubation at 37° C.
[20] = tested on: P. mirabilis A-9900; test: Protective effect in the intramuscular treatment of infected mice (PD50); type: in vivo; settings: Proteus mirabilis, A9900, im, read-out: PD50/Treatment, P. mirabilis A-9900
Protocol: as §1

[21] = tested on: P. vulgaris A21559; test: In vitro MIC, tube dilution; type: cell-based; settings: Proteus vulgaris, A21559, tube dilution, Nutrient Broth, overnight incubation at 37° C.
[22] = tested on: S. aureus A-9606 (Pen-res.); test: In vitro MIC, tube dilution; type: cell-based; settings: Staphylococcus aureus, Nutrient Broth, overnight incubation at 37° C., read-out: MIC S. aureus A-9606 (Pen-res.)
[23] = tested on: S. faecalis A20688; test: In vitro MIC, tube dilution; type: cell-based; settings: Enterococcus faecalis, A20688, tube dilution, Nutrient Broth, overnight incubation at 37° C.
[24] = tested on: S. marcescens A20019; test: In vitro MIC, tube dilution; type: cell-based; settings: Serratia marcescens, A20019; tube dilution, Nutrient Broth, overnight incubation at 37° C.
[25] = tested on: E. coli A15119; test: In vitro MIC, tube dilution; type: cell-based; settings: Escherichia coli, A15119, tube dilution, Nutrient Broth, overnight incubation at 37° C.
[26] = tested on: S. pneumoniae A-9585; test: In vitro MIC, tube dilution; type: cell-based; settings: Streptococcus pneumoniae, A9585, Nutrient Broth, overnight incubation at 37° C.
[27] = Urinary recovery after intramuscular administration to mice; type: in vivo; settings: mouse, urine, im, 20 mg/kg, mice, i.m. 20 mg/kg
Protocol: Compounds were solubilized in 0.1 M phosphate buffer pH 7. Values are from a single test; 4 mice per compound.
as §2
***Recovery based on 0-6 hour collection

[28] = tested on: S. pyogenes A-9604; test: In vitro MIC, tube dilution; type: cell-based; settings: Streptococcus pyogenes, A9604, tube dilution, Nutrient Broth, overnight incubation at 37° C.

Q: Which “activity against various Pseudomonas species” value [1] does the source give for `C[C@@H](O)[C@H]1C(=O)N2C(C(=O)O)=C(SCCN)C[C@H]12` [Thienamycin, thienamycin] here?
A: The value was “notable activity”.

Q: With `C[C@@H](O)[C@H]1C(=O)N2C(C(=O)[O-])=C(SCC[N+]3(C)CCCC3)C[C@H]12` [Example 1, 3-[2-(N-methylpyrrolidinium)ethylthio]-6α-[1-(R)-hydroxyethyl]-7-oxo-1-azabicyclo [3.2.0]hept-2-ene-2-carboxylate] as the compound, how does the MIC [2] read?
A: Its MIC is 0.13 µg/mL (≈ 0.382 µM).

Q: And the MIC [3]?
A: Its MIC is 4 µg/mL (≈ 11.7 µM).

Q: And the MIC [4]?
A: The MIC was 0.25 µg/mL (≈ 0.734 µM).

Q: What about the NOAEL [5] of the same compound?
A: The NOAEL was > 10 mg/kg.

Q: What about the LD50 ([5]; intracranial administration to mice, average of 25 mice/compound) of the same compound?
A: The LD50 was > 10 mg/kg.

Q: And the MIC [6]?
A: The MIC was 0.03 µg/mL (≈ 0.0881 µM).

Q: What about the MIC ([7]; A9537, + 50% serum, tube dilution, read-out: MIC S. aureus + 50% serum A-9537) of the same compound?
A: Its MIC is 0.016 µg/mL.

Q: What about the MIC ([7]; A9537, tube dilution, Nutrient Broth, read-out: MIC S. aureus A-9537) of the same compound?
A: Its MIC is 0.008 µg/mL (≈ 0.0235 µM).

Q: What about the ED50 [8] of the same compound?
A: The ED50 was 3 mg/kg.

Q: And the MIC [9]?
A: Its MIC is 0.13 µg/mL (≈ 0.382 µM).

Q: What about the MIC [10] of the same compound?
A: The MIC was 0.13 µg/mL (≈ 0.382 µM).

Q: And the MIC [11]?
A: The MIC was 0.06 µg/mL (≈ 0.176 µM).

Q: What about the AUC ([12]; 20 mg/kg, Example 1 table, read-out: AUC (area under the blood concentration-time curve)) of the same compound?
A: Its AUC is 5400 ng·h/mL.

Q: What about the half-life ([12]; 20 mg/kg, Example 1 table, read-out: t1/2 (half-life in blood)) of the same compound?
A: Its half-life is 11 min.

Q: And the concentration at 10 min ([12]; 10 min, read-out: Blood Level 10 minutes after administration)?
A: The concentration at 10 min was 13700 ng/mL.

Q: And the concentration at 20 min ([12]; 20 min, read-out: Blood Level 20 minutes after administration)?
A: Its concentration at 20 min is 10200 ng/mL.

Q: What about the concentration at 0.5 h ([12]; 30 min, read-out: Blood Level 30 minutes after administration) of the same compound?
A: The concentration at 0.5 h was 5700 ng/mL.

Q: What about the concentration at 0.75 h ([12]; 45 min, read-out: Blood Level 45 minutes after administration) of the same compound?
A: The concentration at 0.75 h was 2100 ng/mL.

Q: What about the concentration at 1 h ([12]; 60 min, read-out: Blood Level 60 minutes after administration) of the same compound?
A: The concentration at 1 h was < 600 ng/mL.

Q: What about the concentration at […] ([12]; 90 min, read-out: Blood Level 90 minutes after administration) of the same compound?
A: Its concentration at […] is < 600 ng/mL.

Q: What about the MIC [13] of the same compound?
A: Its MIC is 0.5 µg/mL (≈ 1.47 µM).

Q: What about the MIC [14] of the same compound?
A: Its MIC is 0.13 µg/mL (≈ 0.382 µM).

Q: And the MIC [15]?
A: Its MIC is 0.25 µg/mL (≈ 0.734 µM).

Q: What about the MIC [16] of the same compound?
A: The MIC was 0.25 µg/mL (≈ 0.734 µM).

Q: What about the MIC [17] of the same compound?
A: The MIC was 0.13 µg/mL (≈ 0.382 µM).

Q: What about the MIC [18] of the same compound?
A: Its MIC is 0.13 µg/mL (≈ 0.382 µM).

Q: What about the MIC [19] of the same compound?
A: The MIC was 0.25 µg/mL (≈ 0.734 µM).

Q: And the ED50 [20]?
A: Its ED50 is > 10 mg/kg.

Q: And the MIC [21]?
A: Its MIC is 0.03 µg/mL (≈ 0.0881 µM).

Q: And the MIC [22]?
A: The MIC was 0.016 µg/mL (≈ 0.047 µM).

Q: What about the MIC [23] of the same compound?
A: Its MIC is 1 µg/mL (≈ 2.94 µM).

Q: What about the MIC [24] of the same compound?
A: The MIC was 0.06 µg/mL (≈ 0.176 µM).

Q: What about the MIC [25] of the same compound?
A: Its MIC is 0.03 µg/mL (≈ 0.0881 µM).

Q: What about the MIC [26] of the same compound?
A: Its MIC is 0.002 µg/mL (≈ 0.00587 µM).

Q: And the dose excreted at 3 h ([27]; 0-3 hours after administration, read-out: Percentage of Dose Recovered in urine, 0-3 hours)?
A: Its dose excreted at 3 h is 18.8%.

Q: What about the dose excreted at 24 h ([27]; 0-24 hours after administration, read-out: Percentage of Dose Recovered in urine, 0-24 hours) of the same compound?
A: Its dose excreted at 24 h is 19.5 ± 3.2%.

Q: What about the dose excreted at 6 h ([27]; 3-6 hours after administration, read-out: Percentage of Dose Recovered in urine, 3-6 hours) of the same compound?
A: Its dose excreted at 6 h is 0.6%.

Q: And the dose excreted at 24 h ([27]; 6-24 hours after administration, read-out: Percentage of Dose Recovered in urine, 6-24 hours)?
A: The dose excreted at 24 h was 0.1%.

Q: What about the MIC [28] of the same compound?
A: Its MIC is 0.002 µg/mL (≈ 0.00587 µM).
